pIC50: −log10 of the molar value.

In the assay the target is T1, human Histamine H3 receptor (hH3R) (Homo sapiens, UniProt Q9Y5N1).
T1 construct: expressed in transfected cells; host or cells: CHO (Chinese Hamster Ovary) cells; membranes
T1 sequence (Q9Y5N1 whole entry): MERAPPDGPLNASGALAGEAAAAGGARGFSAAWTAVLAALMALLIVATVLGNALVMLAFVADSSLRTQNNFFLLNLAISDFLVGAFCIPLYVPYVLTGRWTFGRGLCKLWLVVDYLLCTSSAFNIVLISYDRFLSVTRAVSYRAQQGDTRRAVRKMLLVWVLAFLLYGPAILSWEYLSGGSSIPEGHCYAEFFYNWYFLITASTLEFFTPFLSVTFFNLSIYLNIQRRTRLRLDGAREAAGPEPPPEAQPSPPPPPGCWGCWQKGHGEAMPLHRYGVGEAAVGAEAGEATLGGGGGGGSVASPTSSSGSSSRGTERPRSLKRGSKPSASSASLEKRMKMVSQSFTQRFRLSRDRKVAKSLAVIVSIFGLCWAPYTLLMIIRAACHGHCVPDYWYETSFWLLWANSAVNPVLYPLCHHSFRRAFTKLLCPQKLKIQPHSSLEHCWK
Description: GTPγS binding assay, antagonist activity in membranes of CHO cells expressing hH3R. The assay is classed as biochemical. The conditions noted are these: membranes from CHO cells transfected with hH3R; (R)-α-methyl histamine 30 nM; [35S]GTPγS 0.2 nM. The source says: At least one compound of at least one formula described herein including the compounds described in the Examples hereof, when tested in at least one in vitro assay as substantially described below is active towards H3 receptors. Particularly, at least one compound described herein is an effective H3 receptor ligand. The in vitro activity may be related to in vivo activity but may not be linearly correlated with binding affinity. In the in vitro assay, a compound can be tested for its activity toward H3 receptors and IC50 obtained to determine the activity for a particular compound toward the H3 receptor.
Guanosine 5′-O-(3-[^35S]thio)triphosphate [GTPγS] Binding Assay
A GTPγS binding assay can be used to investigate antagonist properties of compounds in CHO cells (Chinese Hamster Ovary) transfected with human Histamine H3 receptor (hH3R). Membranes from CHO cells expressing hH3R (10 μg/well) are diluted in GTPγS assay buffer (20 mM Hepes, 10 mM MgCl2, 100 mM NaCl, pH 7.4) and preincubated with saponine (3 μg/ml), GDP (10 μM) and PVT-WGA SPA beads (125 μg/well) (Amersham) for 30 minutes. To determine antagonist activity, (R)-α-methyl histamine (30 nM) is added in 96 well SPA plate with [^35S]GTPγS (0.2 nM) and various concentration of H3R antagonists. The GTPγS binding assay is started with addition of the mixture membrane/saponine/GDP and incubated for 90 minutes at room temperature. The amount of bound [^35S]GTPγS is determined by using the MicroBeta Trilux counter (PerkinElmer). The percentage of [^35S]GTPγS bound in each sample is calculated as a percentage of that bound control sample incubated in absence of H3 antagonist. Duplicate determinations are obtained for each concentration, and the data are analyzed using ExcelFit4 to obtain the IC50.
Set forth in Table 1 hereinbelow for the Example 1-34 compounds are IC50 values that were generated in accordance with the GTPγS Binding Assay as essentially described hereinabove.
Usually pIC50 stands for the IC50 on a negative log10 scale, so that one unit is a factor of ten. A higher pIC50 goes with a low IC50. As to “3-((trans)-2-((R)-4-cyclobutyl-2-methylpiperazine-1-carbonyl)cyclopropyl)benzamide, isomer 1 [Example 28]”, the pIC50 is 8.28.
As for “3-((trans)-2-((R)-4-cyclobutyl-2-methylpiperazine-1-carbonyl)cyclopropyl)benzamide, isomer 2 [Example 29]”, the pIC50 is 6.24.
Consider “3-((trans)-2-((S)-4-cyclobutyl-2-methylpiperazine-1-carbonyl)cyclopropyl)benzamide, isomer 1 [Example 31]”, for which the pIC50 was 8.16. Compared with the last molecule, the pIC50 is 1.92 log units higher.
In the case of “3-((trans)-2-((S)-4-cyclobutyl-2-methylpiperazine-1-carbonyl)cyclopropyl)benzamide, isomer 2 [Example 32]”, the negative-log IC50 (pIC50) is below 5.95.
Molecule “4-((trans)-2-((R)-4-cyclobutyl-2-methylpiperazine-1-carbonyl)cyclopropyl)benzamide, isomer 2 [Example 9]” had a negative-log IC50 (pIC50) of 6.92.
“4-((trans)-2-((R)-4-cyclobutyl-3-methylpiperazine-1-carbonyl)cyclopropyl)benzamide, isomer 1 [Example 21]” had a pIC50 of 8.17.
The molecule “4-((trans)-2-((R)-4-cyclobutyl-3-methylpiperazine-1-carbonyl)cyclopropyl)benzamide, isomer 2 [Example 22]” had a pIC50 of 6.00.
The molecule “4-((trans)-2-((S)-4-cyclobutyl-2-methylpiperazine-1-carbonyl)cyclopropyl)benzamide, isomer 1 [Example 11]” had a pIC50 of 8.24. This pIC50 lies 2.24 log units higher than the previous one.
Molecule “4-((trans)-2-((S)-4-cyclobutyl-2-methylpiperazine-1-carbonyl)cyclopropyl)benzamide, isomer 2 [Example 12]” gave a pIC50 of 5.88.
Then “4-((trans)-2-((S)-4-cyclobutyl-3-methylpiperazine-1-carbonyl)cyclopropyl)benzamide, isomer 1 [Example 18]”, with 8.22; and “4-((trans)-2-((S)-4-cyclobutyl-3-methylpiperazine-1-carbonyl)cyclopropyl)benzamide, isomer 2 [Example 19]”, with 5.90.
On to “4-(trans-2-(4-cyclobutyl-3,3-dimethylpiperazine-1-carbonyl)cyclopropyl)benzamide, enantiomer 1 [Example 25]”, for which the pIC50 is 7.92. This pIC50 is 2.02 log units higher than that of the molecule before.
In turn, “4-(trans-2-(4-cyclobutyl-3,3-dimethylpiperazine-1-carbonyl)cyclopropyl)benzamide, enantiomer 2 [Example 26]” gave a pIC50 below 5.95.
The molecule “4-(trans-2-((R)-4-cyclobutyl-2-ethylpiperazine-1-carbonyl)cyclopropyl)benzamide, isomer 1 [Example 14]” gave a negative-log IC50 (pIC50) of 7.82.
In turn, “4-(trans-2-((R)-4-cyclobutyl-2-ethylpiperazine-1-carbonyl)cyclopropyl)benzamide, isomer 2 [Example 15]” gave a negative logarithm of the IC50 (pIC50) of 6.85.
As for “4-(trans-2-((R)-4-isopropyl-2-methylpiperazine-1-carbonyl)cyclopropyl)benzamide, isomer 1 [Example 2]”, the pIC50 is 8.25.
The molecule “4-(trans-2-((R)-4-isopropyl-2-methylpiperazine-1-carbonyl)cyclopropyl)benzamide, isomer 2 [Example 3]” gave a pIC50 of 6.49.
As for “4-(trans-2-((S)-4-isopropyl-2-methylpiperazine-1-carbonyl)cyclopropyl)benzamide, isomer 1 [Example 5]”, the pIC50 is 8.07.
On to “4-(trans-2-((S)-4-isopropyl-2-methylpiperazine-1-carbonyl)cyclopropyl)benzamide, isomer 2 [Example 6]”, for which the pIC50 is below 5.95.
Regarding `CC(C)N1CCN(C(=O)[C@H]2C[C@@H]2c2ccc(C(N)=O)cc2)[C@H](C)C1` (mixture of isomers) [Example 1, 4-(trans-2-((R)-4-isopropyl-2-methylpiperazine-1-carbonyl)cyclopropyl)benzamide, diastereomeric Mixture], the pIC50 was 8.13.
Then `CC(C)N1CCN(C(=O)[C@H]2C[C@@H]2c2ccc(C(N)=O)cc2)[C@@H](C)C1` (mixture of isomers) [Example 4, 4-(trans-2-((S)-4-isopropyl-2-methylpiperazine-1-carbonyl)cyclopropyl)benzamide, diastereomeric mixture], with 7.87; and `C[C@@H]1CN(C2CCC2)CCN1C(=O)[C@H]1C[C@@H]1c1ccc(C(N)=O)cc1` (mixture of isomers) [Example 7, 4-(trans-2-((R)-4-cyclobutyl-2-methylpiperazine-1-carbonyl)cyclopropyl)benzamide, diastereomeric mixture], with 8.05; and `C[C@H]1CN(C2CCC2)CCN1C(=O)[C@H]1C[C@@H]1c1ccc(C(N)=O)cc1` (mixture of isomers) [Example 10, 4-(trans-2-((S)-4-cyclobutyl-2-methylpiperazine-1-carbonyl)cyclopropyl)benzamide, diastereomeric mixture], with 8.09.
For `CC[C@@H]1CN(C2CCC2)CCN1C(=O)[C@H]1C[C@@H]1c1ccc(C(N)=O)cc1` (mixture of isomers) [Example 13, 4-(trans-2-((R)-4-cyclobutyl-2-ethylpiperazine-1-carbonyl)cyclopropyl)benzamide, diastereomeric mixture] the value was 7.54; for `CC[C@H]1CN(C2CCC2)CCN1C(=O)[C@H]1C[C@@H]1c1ccc(C(N)=O)cc1` (mixture of isomers) [Example 16, 4-(trans-2-((S)-4-cyclobutyl-2-ethylpiperazine-1-carbonyl)cyclopropyl)benzamide, diastereomeric mixture], below 5.95.
The molecule `C[C@H]1CN(C(=O)[C@H]2C[C@@H]2c2ccc(C(N)=O)cc2)CCN1C1CCC1` (mixture of isomers) [Example 17, 4-(trans-2-((S)-4-cyclobutyl-3-methylpiperazine-1-carbonyl)cyclopropyl)benzamide, diastereomeric mixture] showed a pIC50 of 7.85.
As for `C[C@@H]1CN(C(=O)[C@H]2C[C@@H]2c2ccc(C(N)=O)cc2)CCN1C1CCC1` (mixture of isomers) [Example 20, 4-(trans-2-((R)-4-cyclobutyl-3-methylpiperazine-1-carbonyl)cyclopropyl)benzamide, diastereomeric mixture], the negative logarithm of the IC50 (pIC50) was 8.06.
Regarding `C[C@@H]1CN(C2CCC2)CCN1C(=O)[C@H]1C[C@@H]1c1cccc(C(N)=O)c1` (mixture of isomers) [Example 27, 3-(trans-2-((R)-4-cyclobutyl-2-methylpiperazine-1-carbonyl)cyclopropyl)benzamide, diastereomeric mixture], the pIC50 was 7.92.
For `C[C@H]1CN(C2CCC2)CCN1C(=O)[C@H]1C[C@@H]1c1cccc(C(N)=O)c1` (mixture of isomers) [Example 30, 3-(trans-2-((S)-4-cyclobutyl-2-methylpiperazine-1-carbonyl)cyclopropyl)benzamide, diastereomeric mixture], the pIC50 was 7.79. The pIC50 values of the last two molecules are within 0.2 log units of each other.
Consider `C[C@H]1CN(C(=O)[C@H]2C[C@@H]2c2cccc(C(N)=O)c2)CCN1C1CCC1` (mixture of isomers) [Example 33, 3-(trans-2-((S)-4-cyclobutyl-3-methylpiperazine-1-carbonyl)cyclopropyl)benzamide, diastereomeric mixture], for which the pIC50 is 7.39.
For `C[C@@H]1CN(C(=O)[C@H]2C[C@@H]2c2cccc(C(N)=O)c2)CCN1C1CCC1` (mixture of isomers) [Example 34, 3-(trans-2-((R)-4-cyclobutyl-3-methylpiperazine-1-carbonyl)cyclopropyl)benzamide, diastereomeric mixture] the value was 7.29.
For `CC1(C)CN(C2CCC2)CCN1C(=O)[C@H]1C[C@@H]1c1ccc(C(N)=O)cc1` (racemic) [Example 23, 4-(trans-2-(4-cyclobutyl-2,2-dimethylpiperazine-1-carbonyl)cyclopropyl)benzamide, enantiomeric mixture] the value was below 5.95.
For the molecule `CC1(C)CN(C(=O)[C@H]2C[C@@H]2c2ccc(C(N)=O)cc2)CCN1C1CCC1` (racemic) [Example 24, 4-(trans-2-(4-cyclobutyl-3,3-dimethylpiperazine-1-carbonyl)cyclopropyl)benzamide, enantiomeric mixture], the pIC50 is 7.80.
For the molecule `C[C@@H]1CN(C2CCC2)CCN1C(=O)[C@H]1C[C@@H]1c1ccc(C(N)=O)cc1` [Example 8, 4-((trans)-2-((R)-4-cyclobutyl-2-methylpiperazine-1-carbonyl)cyclopropyl)benzamide, isomer 1], the pIC50 was 8.31.

(Values after patent publication US8993577B2, “Cyclopropyl amide derivatives” (Astrazeneca AB, priority 2009, dated 2015).)
